Experimental findings from publication PMC10733349, “Synthesis and in-vitro anti-proliferative with antimicrobial activity of new coumarin containing heterocycles hybrids” (Scientific Reports, 2023) are described below.

≈ marks a conversion by molar mass, not a printed value. Where “and” joins values, the source holds several entries; their conditions need not be identical. Equal values may be shown once.

One series concerns Staphylococcus aureus. As to the kind of experiment: Antimicrobial microplate assay (MIC), S. aureus. Conditions: Staph. aureus, two values per compound. The series is classed as cell-based. The text has this:
(§1) Microbial strains: Escherichia coli, pseudomonas aeruginosa, Staphylococcus aureus, Streptococcus mutans and Candida albicans were collected from the microbial culture collection of Biopharmaceutical Products Research Department, Genetic Engineering and Biotechnology Research Institute, SRTA-City, New Borg El-Arab city, Alexandria, Egypt.
(§2) The antimicrobial activity of coumarin hybrids samples were checked against different multiple drug resistant microorganisms (Escherichia coli, pseudomonas aeruginosa, Staphylococcus aureus and Streptococcus mutans and Candida albicans) using various concentrations (30 to 100 µM). An aliquot of 100.0 µl of each sample concentration was added to an equal volume of each microbial growth dilution (about 10^6 CFU/ml) and inoculated into 96 well plate. Furthermore, 100.0 µl of LB media was added to 100.0 µl of microbial growth to set as the negative control group. After that, the inoculated plates were incubated overnight at 37 °C then, the microbial turbidity was measured using automated ELIZA microplate reader (BINDER BIOTECK E LX 800) adjusted at 620 nm. The microbial inhibition percentage after treatments were quantified using the following equation:1 Inhibition percentage=A-A1/A0×100. where, A: the treatment group absorbance, A1: the blank absorbance, and A0: the control group absorbance.

The next series deals with Streptococcus mutans. The experiment in a line: Antimicrobial microplate assay (MIC), S. mutans. Conditions: two values per compound. The format is cell-based.
Excerpt: as §1, §2

A further series has as its system pseudomonas aeruginosa. The experiment in a line: Antimicrobial microplate assay (MIC), P. aeruginosa. The series is classed as cell-based.
Excerpt: as §1, §2

A further series concerns WISH cell line. The experiment in a line: MTT safety assay on WISH normal cells. The format is cell-based, Human. Conditions: Homo sapiens, 48 h, 2 days. An excerpt:
(§3) Cell lines; WISH cell line (Human amnion-derived normal epithelial cells, CCL-25), MDA-MB-231 cell line (Human, mammary gland/breast adenocarcinoma, HTB-26), CaCo-2 cell line (Human Colorectal adenocarcinoma, epithelial cells, HTB-37), A549 cell line (Human Lung adenocarcinoma, epithelial cells, CCL-185) cell lines and HepG-2 (liver hepatocellular carcinoma, HEPG2, HB-8065) were obtained from ATCC, originally with license and serial numbers as mentioned.
(§4) The safety assays of coumarin hybrids on noncancerous cell lines and their anticancer effects on cancerous cells were gauged utilizing MTT-assay (Promega) in accordance with the instruction protocol. Starting from 60 to 200 µM, serial dilutions of coumarin hybrids were prepared in sterile DMSO to be treated cell lines at final concentrations 30 to 100 µM. The treated cells were incubated for 2 days, and the cellular cytotoxicity was detected by quantifying the solubilized formazan in DMSO at 570 nm. The inhibition concentration of 50 (IC50) was calculated from the cytotoxicity% curve using GraphPad prism 9.
On the technique in general: Tetrazolium assays rely on reduction of a dye to a coloured formazan, in cell work by metabolically active cells.

The test system of another series is CaCo-2 cell line. As to the kind of experiment: MTT anti-proliferative assay, CaCo-2. Conditions: for IC50: CaCo-2, MTT, 2 days; for Selective index: SI = IC50 normal cells (WISH)/IC50 CaCo-2. The series is classed as cell-based, Human.
Excerpt: as §3, §4
(§5) Cancer cell selectivity index of Coumarin hybrids samples were measured as explained by, with a minor modification; (SI = IC50nc/IC50cc), where IC50nc refers to the value of IC50 of the coumarin hybrids compounds on normal cells, while IC50cc refers to the IC50 of the coumarin hybrids compounds on cancer cell line.

A further series concerns A549 cell line. The experiment in a line: MTT anti-proliferative assay, A549. The series is classed as cell-based, Human. Conditions: for IC50: Homo sapiens, A549, 48 h, A549, MTT, 2 days.
Excerpt: as §3, §4, §5

The subject of the next series is MDA-MB-231 cell line. The experiment in a line: MTT anti-proliferative assay, MDA-MB-231. The series is classed as cell-based, Human. Conditions: for IC50: Homo sapiens, MDA-MB-231, 48 h, MDA-MB-231, MTT, 2 days; for Selective index: SI = IC50 normal cells (WISH)/IC50 MDA-MB-231.
Excerpt: as §3, §4, §5

For a further series, the system named is HepG-2. As to the kind of experiment: MTT anti-proliferative assay, HepG-2. The format is cell-based, human. Conditions: for IC50: Homo sapiens, HepG2, 48 h, HepG-2, MTT, 2 days; for Selective index: SI = IC50 normal cells (WISH)/IC50 HepG-2.
Excerpt: as §3, §4, §5

In a further series the test system is Candida albicans. As to the kind of experiment: Antimicrobial microplate assay (MIC), C. albicans. Conditions: two values per compound. The format is cell-based.
Excerpt: as §1, §2

A further series concerns Escherichia coli. As to the kind of experiment: Antimicrobial microplate assay (MIC), E. coli. Conditions: two values per compound. The format is cell-based.
Excerpt: as §1, §2

On to `O=C(NCCNc1c2ccccc2nc2ccccc12)c1cc2ccccc2oc1=O` [10b, N-(2-(Acridin-9-ylamino)ethyl)-2-oxo-2H-chromene-3-carboxamide], for which the MIC (commonly the lowest concentration that inhibits growth of the organism) is 3.2 µM (≈ 1.31 µg/mL) with Staphylococcus aureus; 3.2 to 66 µM (≈ 1.31 to 27 µg/mL) against Staphylococcus aureus (Staphylococcus aureus); 3.2 to 66 µM (≈ 1.31 to 27 µg/mL) against Streptococcus mutans (Streptococcus mutans); 5 µM and 5.5 µM against Streptococcus mutans; 14.8 µM (≈ 6.06 µg/mL) with pseudomonas aeruginosa.

Turning to `O=C(NCCCNc1c2ccccc2nc2ccccc12)c1cc2ccccc2oc1=O` [10c, N-(3-(Acridin-9-ylamino)propyl)-2-oxo-2H-chromene-3-carboxamide], the melting point (usually the temperature, or range, at which the solid turns liquid) lay within 261 to 263 °C. In addition, in the series with WISH cell line, the IC50 – broadly, the concentration at which inhibition is half-maximal – was found to be 56.7 µM. In the series with CaCo-2 cell line, this molecule had an IC50 of 56.7 µM and a Selective index of 0.77. In the series with CaCo-2 cell line (listed as 10), this molecule showed an IC50 of 145 µM and a Selective index of 0.7785. The same molecule had an IC50 with A549 cell line of 130 µM. In addition, in the series with MDA-MB-231 cell line, the IC50 is 109 µM and the Selective index is on record as 0.8462. In the series with HepG-2, the IC50 is 107 µM and the Selective index turned out to be 0.5533. This molecule yielded an MIC in the series on pseudomonas aeruginosa of 15.4 µM (≈ 6.52 µg/mL).

In turn, `O=C(NNc1ccnc2cc(Cl)ccc12)c1cc2ccccc2oc1=O` [7a, N'-(7-Chloroquinolin-4-yl)-2-oxo-2H-chromene-3-carbohydrazide] gave a melting point of 294 to 296 °C. The molecule also had an IC50 with WISH cell line of 79.3 µM. In the series with CaCo-2 cell line (Homo sapiens, Caco-2, 48 h), this molecule returned an IC50 of 57.1 µM. The Selective index in the series with CaCo-2 cell line is 1.38 and 1.39. In the series with A549 cell line, this molecule showed a half-inhibitory concentration (IC50) of 51.7 µM. For the same molecule, in the series with A549 cell line (SI = IC50 normal cells (WISH)/IC50 A549), the Selective index is 1.5 and 1.533. In the series with MDA-MB-231 cell line, this molecule yielded an IC50 of 211 µM and a Selective index of 0.3752. Also, in the series on HepG-2, the IC50 is 75.4 µM and the Selective index is listed as 1.051. This molecule also yielded an MIC against Staphylococcus aureus of 31 µM (≈ 11.3 µg/mL). In addition, the lowest concentration to inhibit growth in the series with Staphylococcus aureus (Staphylococcus aureus) (MIC) was 30 µM (≈ 11 µg/mL). The MIC with Candida albicans (Candida albicans) stood at 62 µM (≈ 22.7 µg/mL). The MIC with Candida albicans turned out to be 61 µM (≈ 22.3 µg/mL). Besides, 29 µM (≈ 10.6 µg/mL) was the least that counted as inhibitory against Escherichia coli (Escherichia coli) (MIC). In the series on Escherichia coli, this molecule displayed an MIC of 28 µM (≈ 10.2 µg/mL). In the series with Streptococcus mutans (Streptococcus mutans), this molecule yielded an MIC of 248 µM (≈ 90.7 µg/mL). The molecule further came in with an MIC in the series with Streptococcus mutans of 246 µM (≈ 90 µg/mL).
